Data reported in ChEMBL document CHEMBL1201862, “PubChem BioAssay data set” (2004).
The source made the active and inactive calls.

Tests used:
HEK293 [1] = assay: inhibitors of LMP1-driven NF-kB reporter, dose response, cell-based, HEK293, luciferase, cherry-pick (AID 588343); format: functional; settings: Homo sapiens
[2] = biological target: T1, Heat shock factor protein 1 (Mus musculus, UniProt P38532); assay: inhibition of MG132-induced HSE-luciferase signal, confirmation, cell-based, NIH3T3, luminescence, dose retest (AID 2382); format: functional;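 further: NIH3T3 fibroblasts with HSF1-driven luciferase reporter stressed by proteasome inhibitor MG132; luminescence from HSF1-driven luciferase expression after 8 hours of MG132 stress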
T1 sequence (P38532 whole entry): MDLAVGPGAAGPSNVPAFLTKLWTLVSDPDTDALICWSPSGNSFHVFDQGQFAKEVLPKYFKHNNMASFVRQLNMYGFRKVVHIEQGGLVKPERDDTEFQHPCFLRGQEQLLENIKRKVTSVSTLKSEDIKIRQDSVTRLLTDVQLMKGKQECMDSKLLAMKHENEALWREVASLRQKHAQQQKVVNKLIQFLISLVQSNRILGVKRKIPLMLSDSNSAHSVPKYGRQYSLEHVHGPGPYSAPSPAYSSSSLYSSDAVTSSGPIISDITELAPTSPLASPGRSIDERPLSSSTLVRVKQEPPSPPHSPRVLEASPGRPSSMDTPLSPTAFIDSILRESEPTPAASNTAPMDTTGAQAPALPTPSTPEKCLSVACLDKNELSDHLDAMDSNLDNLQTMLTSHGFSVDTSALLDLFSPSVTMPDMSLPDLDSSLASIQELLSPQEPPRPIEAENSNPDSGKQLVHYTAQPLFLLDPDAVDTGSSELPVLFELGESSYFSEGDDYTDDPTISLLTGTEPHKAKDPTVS

X-box-binding protein 1 = biological target: T2, X-box-binding protein 1 (Homo sapiens, UniProt P17861); format: functional, Cricetulus griseus;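 further: confirmatory dose-response counter-screen serving a CHOP assay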
T2 sequence (P17861 whole entry): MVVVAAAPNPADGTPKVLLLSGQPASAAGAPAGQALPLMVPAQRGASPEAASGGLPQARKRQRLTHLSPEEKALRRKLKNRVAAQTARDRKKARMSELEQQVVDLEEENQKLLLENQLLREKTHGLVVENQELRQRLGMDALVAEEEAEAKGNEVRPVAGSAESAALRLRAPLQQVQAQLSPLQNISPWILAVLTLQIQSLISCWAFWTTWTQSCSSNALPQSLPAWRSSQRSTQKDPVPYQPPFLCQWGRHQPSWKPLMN

[3] = biological target: G-protein coupled receptor 55 (Homo sapiens, UniProt Q9Y2T6); assay: GPR55 agonists via beta-arrestin recruitment, primary screen, imaging, U2OS cells, beta-arrestin-GFP redistribution (AID 1961); format: functional
Sequence of G-protein coupled receptor 55 (Q9Y2T6 whole entry): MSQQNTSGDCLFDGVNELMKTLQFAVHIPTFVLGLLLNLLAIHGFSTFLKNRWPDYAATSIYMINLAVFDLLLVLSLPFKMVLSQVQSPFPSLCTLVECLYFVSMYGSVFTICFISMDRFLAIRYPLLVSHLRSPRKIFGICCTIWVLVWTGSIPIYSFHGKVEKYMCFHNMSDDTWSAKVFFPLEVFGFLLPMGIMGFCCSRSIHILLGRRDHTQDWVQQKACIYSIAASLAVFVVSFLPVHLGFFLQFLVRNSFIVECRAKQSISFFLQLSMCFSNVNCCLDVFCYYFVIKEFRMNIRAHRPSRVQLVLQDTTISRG

[4] = Artemis endonuclease inhibitor potency, dose response, biochemical, fluorescence intensity (AID 720701); format: functional;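 further: Artemis endonuclease enzyme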
Estrogen receptor = biological target: T3, Estrogen receptor (Homo sapiens, UniProt P03372);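 further: potency for inhibiting coactivator peptide recruitment to the receptor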
T3 sequence (P03372 whole entry): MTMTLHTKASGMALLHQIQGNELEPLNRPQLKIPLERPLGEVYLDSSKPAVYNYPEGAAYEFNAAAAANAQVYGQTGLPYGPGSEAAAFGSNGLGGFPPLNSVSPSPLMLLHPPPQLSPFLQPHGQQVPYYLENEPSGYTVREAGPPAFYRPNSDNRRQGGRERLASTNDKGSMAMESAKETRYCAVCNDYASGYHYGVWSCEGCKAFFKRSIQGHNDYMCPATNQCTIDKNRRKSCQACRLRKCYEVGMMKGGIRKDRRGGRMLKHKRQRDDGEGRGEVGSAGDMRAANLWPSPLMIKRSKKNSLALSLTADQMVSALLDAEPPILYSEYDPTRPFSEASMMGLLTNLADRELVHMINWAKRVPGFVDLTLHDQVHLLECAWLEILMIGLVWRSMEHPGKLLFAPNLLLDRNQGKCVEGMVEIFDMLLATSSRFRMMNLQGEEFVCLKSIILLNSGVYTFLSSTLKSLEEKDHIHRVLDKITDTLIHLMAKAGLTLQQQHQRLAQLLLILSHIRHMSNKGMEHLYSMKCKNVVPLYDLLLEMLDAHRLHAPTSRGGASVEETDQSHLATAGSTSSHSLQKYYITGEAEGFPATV

[5] = biological target: Protein-tyrosine kinase 2-beta (Homo sapiens, UniProt Q14289);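 further: potency of inhibitors of PYK2 kinase phosphorylation of poly-GT substrate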
Sequence of Protein-tyrosine kinase 2-beta (Q14289 whole entry): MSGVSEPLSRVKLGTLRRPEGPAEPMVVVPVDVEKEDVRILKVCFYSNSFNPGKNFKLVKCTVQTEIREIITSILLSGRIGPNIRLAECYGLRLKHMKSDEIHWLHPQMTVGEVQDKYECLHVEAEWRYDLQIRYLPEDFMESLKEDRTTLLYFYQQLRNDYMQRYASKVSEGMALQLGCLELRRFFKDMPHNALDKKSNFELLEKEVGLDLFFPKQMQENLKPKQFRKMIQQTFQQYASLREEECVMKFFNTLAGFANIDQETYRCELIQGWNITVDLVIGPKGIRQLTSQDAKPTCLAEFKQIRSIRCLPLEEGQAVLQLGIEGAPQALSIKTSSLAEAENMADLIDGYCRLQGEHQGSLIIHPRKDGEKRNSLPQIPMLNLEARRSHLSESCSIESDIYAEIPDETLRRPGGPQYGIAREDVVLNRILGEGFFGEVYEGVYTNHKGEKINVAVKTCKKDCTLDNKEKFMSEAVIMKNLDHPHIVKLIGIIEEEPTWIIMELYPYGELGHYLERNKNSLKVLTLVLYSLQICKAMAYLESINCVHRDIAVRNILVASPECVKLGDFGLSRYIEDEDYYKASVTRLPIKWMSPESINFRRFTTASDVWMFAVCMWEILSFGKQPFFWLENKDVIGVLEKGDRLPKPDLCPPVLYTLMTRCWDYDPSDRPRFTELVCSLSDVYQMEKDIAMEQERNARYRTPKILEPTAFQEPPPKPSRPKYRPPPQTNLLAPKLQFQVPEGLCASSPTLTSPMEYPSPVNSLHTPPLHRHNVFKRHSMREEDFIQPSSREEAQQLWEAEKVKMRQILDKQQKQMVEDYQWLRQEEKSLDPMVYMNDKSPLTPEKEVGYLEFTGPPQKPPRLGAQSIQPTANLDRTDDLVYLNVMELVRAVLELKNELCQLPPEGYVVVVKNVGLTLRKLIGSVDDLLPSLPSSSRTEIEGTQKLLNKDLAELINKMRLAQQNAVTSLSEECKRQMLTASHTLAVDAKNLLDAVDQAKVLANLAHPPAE

Bcl-2-like protein 10 = biological target: T4, Bcl-2-like protein 10 (Homo sapiens, UniProt Q9HD36); assay: displacers of TR3 peptide from Bcl-B, primary screen, selectivity assay for Bfl-1 inhibitor project, biochemical, fluorescence polarization, FITC-TR3 peptide (AID 748);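 further: fluorescence polarization from a fluorescein-labelled TR3 peptide binding purified Bcl-B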
T4 sequence (Q9HD36 whole entry): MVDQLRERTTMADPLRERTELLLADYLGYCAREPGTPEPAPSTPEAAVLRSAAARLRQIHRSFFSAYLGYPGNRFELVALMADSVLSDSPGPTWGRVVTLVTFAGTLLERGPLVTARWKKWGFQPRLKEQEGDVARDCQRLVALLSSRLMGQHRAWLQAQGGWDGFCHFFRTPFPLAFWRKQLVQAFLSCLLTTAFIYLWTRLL

Aminopeptidase N = biological target: T5, Aminopeptidase N (Plasmodium falciparum FcB1/Columbia, UniProt O96935); assay: P. falciparum M1AAP inhibitors, biochemical, fluorogenic H-Leu-NHMec substrate, 1536-well (AID 1445); parameters: species or system Plasmodium falciparum 3D7, 3D7
T5 sequence (O96935 whole entry): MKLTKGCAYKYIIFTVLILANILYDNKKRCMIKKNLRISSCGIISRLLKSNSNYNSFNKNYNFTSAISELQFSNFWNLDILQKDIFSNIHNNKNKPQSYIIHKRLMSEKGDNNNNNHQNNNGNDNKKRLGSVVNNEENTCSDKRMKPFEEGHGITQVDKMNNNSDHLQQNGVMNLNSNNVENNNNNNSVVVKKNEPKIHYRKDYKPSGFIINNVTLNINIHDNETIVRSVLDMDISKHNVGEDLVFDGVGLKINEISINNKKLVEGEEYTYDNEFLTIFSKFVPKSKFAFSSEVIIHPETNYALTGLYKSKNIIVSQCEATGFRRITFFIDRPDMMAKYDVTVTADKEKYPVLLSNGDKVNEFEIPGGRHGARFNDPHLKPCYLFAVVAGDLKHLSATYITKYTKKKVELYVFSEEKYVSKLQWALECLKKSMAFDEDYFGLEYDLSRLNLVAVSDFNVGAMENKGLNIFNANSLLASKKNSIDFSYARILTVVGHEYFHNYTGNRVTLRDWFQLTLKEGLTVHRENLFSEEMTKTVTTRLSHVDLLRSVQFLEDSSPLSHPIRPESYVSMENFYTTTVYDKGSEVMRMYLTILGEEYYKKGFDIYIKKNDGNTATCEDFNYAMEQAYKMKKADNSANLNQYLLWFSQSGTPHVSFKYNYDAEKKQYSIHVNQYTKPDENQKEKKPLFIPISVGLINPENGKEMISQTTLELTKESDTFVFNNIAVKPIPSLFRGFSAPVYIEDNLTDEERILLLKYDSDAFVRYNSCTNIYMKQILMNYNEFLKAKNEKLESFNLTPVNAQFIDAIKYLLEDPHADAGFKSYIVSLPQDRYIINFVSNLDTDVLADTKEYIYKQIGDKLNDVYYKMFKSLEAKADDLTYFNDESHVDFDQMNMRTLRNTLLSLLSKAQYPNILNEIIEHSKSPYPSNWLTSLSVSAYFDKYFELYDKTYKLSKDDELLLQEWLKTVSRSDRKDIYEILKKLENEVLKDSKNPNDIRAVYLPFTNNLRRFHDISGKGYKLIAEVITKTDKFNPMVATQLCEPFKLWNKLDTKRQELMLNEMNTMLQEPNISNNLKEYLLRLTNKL

[6] = biological target: Eukaryotic translation initiation factor 4H (Homo sapiens, UniProt Q15056); assay: human eIF4H binding inhibitors, primary screen, translation initiation inhibitor project, biochemical, uHTS, fluorescence polarization (AID 2012)
[7] = biological target: Polyadenylate-binding protein 1 (Homo sapiens, UniProt P11940); assay: PABP poly(A) RNA binding inhibitors, primary screen, biochemical, fluorescence polarization, uHTS (AID 2014)
Sequence of Polyadenylate-binding protein 1 (P11940 whole entry): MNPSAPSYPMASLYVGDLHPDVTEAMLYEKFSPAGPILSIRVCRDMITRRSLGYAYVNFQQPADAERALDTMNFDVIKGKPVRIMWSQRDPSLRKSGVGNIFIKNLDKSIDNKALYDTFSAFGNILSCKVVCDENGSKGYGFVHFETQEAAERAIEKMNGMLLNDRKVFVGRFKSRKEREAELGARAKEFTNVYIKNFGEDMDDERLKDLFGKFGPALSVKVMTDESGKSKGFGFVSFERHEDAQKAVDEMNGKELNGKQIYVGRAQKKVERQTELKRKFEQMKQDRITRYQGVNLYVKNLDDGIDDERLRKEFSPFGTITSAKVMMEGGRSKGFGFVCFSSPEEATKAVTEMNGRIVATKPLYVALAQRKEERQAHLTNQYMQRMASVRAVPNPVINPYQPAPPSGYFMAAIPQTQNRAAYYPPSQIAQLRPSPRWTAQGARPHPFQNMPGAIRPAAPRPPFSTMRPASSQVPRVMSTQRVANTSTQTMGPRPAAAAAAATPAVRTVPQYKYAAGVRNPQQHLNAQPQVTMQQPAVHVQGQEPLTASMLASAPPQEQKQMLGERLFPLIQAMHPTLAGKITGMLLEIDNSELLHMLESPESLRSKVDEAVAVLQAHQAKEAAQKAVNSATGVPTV

[8] = biological target: FAD-linked sulfhydryl oxidase ALR (Homo sapiens, UniProt P55789); assay: inhibitors of human ALR sulfhydryl oxidase, dose response, biochemical, H2O2 detection, luminescence, cherry-pick (AID 493248)
Sequence of FAD-linked sulfhydryl oxidase ALR (P55789 whole entry): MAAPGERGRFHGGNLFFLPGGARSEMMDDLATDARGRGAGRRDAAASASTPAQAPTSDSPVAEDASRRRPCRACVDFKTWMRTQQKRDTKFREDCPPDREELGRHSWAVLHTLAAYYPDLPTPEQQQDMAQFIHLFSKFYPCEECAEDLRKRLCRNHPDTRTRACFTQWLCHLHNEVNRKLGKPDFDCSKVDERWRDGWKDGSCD

[9] = biological target: Glucose-6-phosphate 1-dehydrogenase (Homo sapiens, UniProt P11413); assay: human G6PD enzyme inhibitors, dose response, selectivity assay for P. falciparum G6PD inhibitor project, biochemical, fluorescence (AID 504792); format: functional
Large T antigen = Large T antigen (Simian virus 40, UniProt P03070); format: functional, Betapolyomavirus macacae;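 further: Confirmatory-stage PubChem screen for compounds that inhibit SV40 T antigen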
Sequence of Large T antigen (P03070 whole entry): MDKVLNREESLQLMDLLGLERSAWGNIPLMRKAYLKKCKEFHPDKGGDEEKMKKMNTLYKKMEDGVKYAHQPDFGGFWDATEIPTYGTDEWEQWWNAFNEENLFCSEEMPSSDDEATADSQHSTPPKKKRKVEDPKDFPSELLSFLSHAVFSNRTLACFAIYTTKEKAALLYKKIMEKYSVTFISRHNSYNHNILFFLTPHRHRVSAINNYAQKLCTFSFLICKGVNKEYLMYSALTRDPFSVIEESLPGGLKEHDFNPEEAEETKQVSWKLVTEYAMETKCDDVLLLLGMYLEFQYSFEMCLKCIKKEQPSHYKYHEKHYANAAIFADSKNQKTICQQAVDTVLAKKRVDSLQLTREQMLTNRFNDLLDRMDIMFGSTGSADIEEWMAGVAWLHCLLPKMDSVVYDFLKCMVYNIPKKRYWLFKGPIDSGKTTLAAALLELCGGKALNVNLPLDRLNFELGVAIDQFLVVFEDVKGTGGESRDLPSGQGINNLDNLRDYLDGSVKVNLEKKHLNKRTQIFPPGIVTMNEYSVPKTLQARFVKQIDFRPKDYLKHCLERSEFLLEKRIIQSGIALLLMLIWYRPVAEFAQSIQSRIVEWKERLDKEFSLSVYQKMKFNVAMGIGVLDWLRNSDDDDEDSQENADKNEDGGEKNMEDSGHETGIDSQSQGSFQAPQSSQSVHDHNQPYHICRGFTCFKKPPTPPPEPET

Estrogen receptor beta [10] = biological target: T6, Estrogen receptor beta (Homo sapiens, UniProt Q92731); assay: ERβ–SRC-3 coactivator interaction inhibitors, confirmation, orthogonal assay, biochemical, ELISA, streptavidin-HRP readout (AID 1060)
T6 sequence (Q92731 whole entry): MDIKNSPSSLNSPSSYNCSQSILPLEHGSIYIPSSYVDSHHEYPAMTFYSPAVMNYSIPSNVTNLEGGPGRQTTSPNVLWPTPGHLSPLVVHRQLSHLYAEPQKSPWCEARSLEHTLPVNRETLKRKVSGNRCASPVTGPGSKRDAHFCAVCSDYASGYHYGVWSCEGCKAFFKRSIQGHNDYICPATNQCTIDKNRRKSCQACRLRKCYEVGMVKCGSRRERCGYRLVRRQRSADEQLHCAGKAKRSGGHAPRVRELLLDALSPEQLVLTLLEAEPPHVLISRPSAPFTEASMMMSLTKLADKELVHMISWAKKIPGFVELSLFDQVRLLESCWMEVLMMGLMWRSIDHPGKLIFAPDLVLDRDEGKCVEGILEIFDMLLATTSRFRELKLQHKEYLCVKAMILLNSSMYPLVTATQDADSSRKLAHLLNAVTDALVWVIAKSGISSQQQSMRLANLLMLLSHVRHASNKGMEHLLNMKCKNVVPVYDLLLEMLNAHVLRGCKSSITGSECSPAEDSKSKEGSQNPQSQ

Estrogen receptor beta [11] = biological target: T6, Estrogen receptor beta
[12] = biological target: T7, Nucleotide-binding oligomerization domain-containing protein 1 (Homo sapiens, UniProt Q9Y239); assay: NOD1 signaling inhibitors, SAR follow-up, revised (AID 2333); format: functional
T7 sequence (Q9Y239 whole entry): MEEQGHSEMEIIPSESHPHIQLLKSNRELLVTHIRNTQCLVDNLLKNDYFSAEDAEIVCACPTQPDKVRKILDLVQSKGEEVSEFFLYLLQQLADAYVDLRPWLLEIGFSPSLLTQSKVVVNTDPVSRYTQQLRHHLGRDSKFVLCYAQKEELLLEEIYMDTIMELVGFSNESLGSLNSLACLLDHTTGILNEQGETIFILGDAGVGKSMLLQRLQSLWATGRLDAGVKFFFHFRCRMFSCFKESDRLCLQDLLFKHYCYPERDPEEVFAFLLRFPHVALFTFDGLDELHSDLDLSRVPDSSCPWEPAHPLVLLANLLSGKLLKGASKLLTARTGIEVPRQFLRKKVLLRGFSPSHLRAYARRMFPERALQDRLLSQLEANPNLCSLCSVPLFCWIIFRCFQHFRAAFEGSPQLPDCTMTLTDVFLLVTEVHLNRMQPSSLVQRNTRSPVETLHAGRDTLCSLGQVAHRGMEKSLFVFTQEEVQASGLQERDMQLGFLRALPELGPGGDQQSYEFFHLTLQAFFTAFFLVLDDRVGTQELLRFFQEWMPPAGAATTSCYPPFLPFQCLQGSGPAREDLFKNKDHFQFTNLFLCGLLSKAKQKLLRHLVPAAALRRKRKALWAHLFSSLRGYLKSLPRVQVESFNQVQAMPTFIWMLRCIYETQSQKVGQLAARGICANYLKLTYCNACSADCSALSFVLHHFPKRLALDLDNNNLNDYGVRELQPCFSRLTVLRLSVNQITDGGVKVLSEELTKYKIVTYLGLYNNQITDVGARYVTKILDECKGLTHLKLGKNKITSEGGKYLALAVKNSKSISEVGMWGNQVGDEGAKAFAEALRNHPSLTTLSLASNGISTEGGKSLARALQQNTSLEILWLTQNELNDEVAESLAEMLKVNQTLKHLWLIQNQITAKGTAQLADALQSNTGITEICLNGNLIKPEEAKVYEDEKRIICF

HEK293 [13] = assay: cells; settings: Homo sapiens
[14] = biological target: Nucleotide-binding oligomerization domain-containing protein 2 (Homo sapiens, UniProt Q9HC29); assay: PubChem AID 2334; format: functional
Sequence of Nucleotide-binding oligomerization domain-containing protein 2 (Q9HC29 whole entry, the tested form may be a part): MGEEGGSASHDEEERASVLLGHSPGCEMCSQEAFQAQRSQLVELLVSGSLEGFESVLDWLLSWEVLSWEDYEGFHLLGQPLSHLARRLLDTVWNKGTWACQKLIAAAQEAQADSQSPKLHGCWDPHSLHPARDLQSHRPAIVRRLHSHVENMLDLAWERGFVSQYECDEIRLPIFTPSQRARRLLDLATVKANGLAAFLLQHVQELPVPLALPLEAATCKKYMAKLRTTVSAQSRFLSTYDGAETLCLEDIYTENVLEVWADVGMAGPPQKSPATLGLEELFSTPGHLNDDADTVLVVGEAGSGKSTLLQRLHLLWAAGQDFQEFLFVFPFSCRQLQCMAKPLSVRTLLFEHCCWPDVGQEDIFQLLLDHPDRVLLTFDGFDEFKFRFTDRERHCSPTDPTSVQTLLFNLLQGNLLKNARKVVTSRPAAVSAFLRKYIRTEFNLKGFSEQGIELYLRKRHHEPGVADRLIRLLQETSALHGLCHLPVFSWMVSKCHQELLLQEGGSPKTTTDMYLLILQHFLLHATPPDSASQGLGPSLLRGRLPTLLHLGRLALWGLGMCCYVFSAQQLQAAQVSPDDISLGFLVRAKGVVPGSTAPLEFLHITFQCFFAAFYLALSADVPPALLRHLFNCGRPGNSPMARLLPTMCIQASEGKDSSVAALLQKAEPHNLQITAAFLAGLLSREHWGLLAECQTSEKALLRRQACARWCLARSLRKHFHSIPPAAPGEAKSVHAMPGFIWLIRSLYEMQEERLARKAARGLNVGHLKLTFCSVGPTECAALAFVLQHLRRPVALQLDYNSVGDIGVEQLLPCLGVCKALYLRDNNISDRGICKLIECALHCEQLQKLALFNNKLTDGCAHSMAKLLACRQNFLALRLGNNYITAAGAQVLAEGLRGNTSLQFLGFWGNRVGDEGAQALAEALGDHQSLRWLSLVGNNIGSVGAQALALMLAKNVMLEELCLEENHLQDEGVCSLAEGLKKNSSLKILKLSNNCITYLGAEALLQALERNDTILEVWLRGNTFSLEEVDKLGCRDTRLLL

Tumor necrosis factor = Tumor necrosis factor (Homo sapiens, UniProt P01375); assay: TNFa-triggered NF-kB activation inhibitors, SAR follow-up, cell-based, revised (AID 2337); format: functional
Sequence of Tumor necrosis factor (P01375 whole entry): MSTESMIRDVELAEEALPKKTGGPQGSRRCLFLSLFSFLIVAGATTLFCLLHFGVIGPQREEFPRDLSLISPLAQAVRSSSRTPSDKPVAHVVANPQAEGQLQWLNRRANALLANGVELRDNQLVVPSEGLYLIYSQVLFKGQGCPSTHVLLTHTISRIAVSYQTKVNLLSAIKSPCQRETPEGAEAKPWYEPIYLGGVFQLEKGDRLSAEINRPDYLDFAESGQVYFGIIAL

COc1ccc(CCNC(=O)c2nnn(-c3ccc4c(c3)OCCO4)c2N)cc1OC
AC50 (HEK293 [1]): 0.786 µM (active)
EC50 [2]: 0.44 µM (active)
Absolute IC50 (XBP1) (X-box-binding protein 1): 10 µM

CC(=O)OC(c1nc2ccccc2c(=O)n1C1CC2(OC1=O)c1ccccc1N1C(=O)C(C)(C)N(O)C12)C(C)C (stereo unspecified)
EC50 [3]: 7.35 µM (active)

O=C(Nc1ccc(N2CCCC2)cc1)C(c1ccccc1)c1ccccc1
IC50 [4]: > 20 µM (inactive)
IC50 (Estrogen receptor): 7.09 µM (active)
IC50 [5]: 11.6 µM (not active)
IC50 (Bcl-2-like protein 10): 18.9 µM (active)

O=C1NC(=S)NC(=O)C1=NNc1cc2c(cc1[N+](=O)[O-])OCO2
IC50 (Aminopeptidase N): 26.9 µM (active)

C[N+]1(C)C2CCC1CC(OC(=O)c1ccco1)C2 (stereo unspecified)
IC50 [6]: > 100 µM (inactive)
IC50 [7]: 7.77 µM (active)

O=C(c1ccco1)N1CCN=C1SCc1cccnc1
AC50 [8]: 1.19 µM (active)

CCN(CCNS(=O)(=O)c1ccc2nc(O)sc2c1)c1ccccc1
AC50 [8]: 1.17 µM (active)

O=C(CN1CCN(c2ccc(O)cc2)CC1)Nc1cc(S(=O)(=O)N2CCOCC2)ccc1Cl
IC50 [6]: 72.2 µM (active)
IC50 [7]: > 100 µM (inactive)
IC50 [9]: > 80 µM (inactive)
IC50 (Large T antigen): 17 µM (active)

O=C(COC(=O)CN1C(=O)c2ccccc2C1=O)Nc1ncc(Cl)cc1Cl
IC50 (Estrogen receptor beta [10]): < 77 µM (not active)
IC50 (Estrogen receptor beta [11]): 11.1 µM (active)
IC50 (Bcl-2-like protein 10): 41.5 µM (active)

CC1(c2ccc(OC(F)F)cc2)NC(=O)N(CC(=O)Nc2ccc(S(N)(=O)=O)cc2)C1=O (stereo unspecified)
IC50 (Aminopeptidase N): 28.3 µM (active)

CN1/C(=C\C(=O)COC(=O)c2ccco2)C(C)(C)c2ccccc21
EC50 [3]: 5.59 µM (active)

Cc1cccn2c(=O)c3cc(C(=O)NCC4CCCO4)c(=N)n(Cc4cccnc4)c3nc12 (stereo unspecified)
IC50 (Bcl-2-like protein 10): > 25 µM (inactive)

Cc1ccccc1C(=O)Nc1nc2ccccc2n1Cc1ccc(Cl)cc1
IC50 [12]: > 20 µM (inactive)
IC50 (HEK293 [13]): > 20 µM (inactive)
IC50 [14]: > 20 µM (inactive)
IC50 (Tumor necrosis factor): > 20 µM (inactive)

O=C(Nc1ccc(Cl)c(Cl)c1)c1ccc(CN2CCc3ccccc3C2)cc1
IC50 [12]: 0.891 µM (active)
IC50 (HEK293 [13]): 8.89 µM (active)
IC50 [14]: > 20 µM (inactive)
IC50 (Tumor necrosis factor): > 20 µM (inactive)

O=C(C1CC1)N1CCc2cc(S(=O)(=O)N3CCN(c4ccc([N+](=O)[O-])cc4)CC3)ccc21
IC50 [12]: 6.5 µM (active)
IC50 (HEK293 [13]): > 20 µM (inactive)
IC50 [14]: 8.44 µM (active)
IC50 (Tumor necrosis factor): 12.4 µM (active)

Cc1ccc(/C=N/NC(=O)CSCc2ccc(Cl)cc2)cc1
Absolute IC50 (XBP1) (X-box-binding protein 1): 10 µM
